Experimental data reported in US10336702B2, “Pharmaceutically active compounds” (BERGENBIO ASA, priority 2015, dated 2019).

What was measured:
Akt1 = molecular target: T1, Akt1 (Homo sapiens, UniProt P31749); assay: Akt activation assay (PDK1-mediated activation, LANCE Ultra crosstide TR-FRET), Akt1; format: biochemical; details: read-out: Biological Assay 1 IC50 (nM) Akt1
T1 construct: unspecified tag, removed (detagged) (cleaved yes); purchased SignalChem and Proteros (Akt1); Merck Millipore (PDK1) 14-452 (PDK1); none given for Akt1
T1 sequence (P31749 whole entry): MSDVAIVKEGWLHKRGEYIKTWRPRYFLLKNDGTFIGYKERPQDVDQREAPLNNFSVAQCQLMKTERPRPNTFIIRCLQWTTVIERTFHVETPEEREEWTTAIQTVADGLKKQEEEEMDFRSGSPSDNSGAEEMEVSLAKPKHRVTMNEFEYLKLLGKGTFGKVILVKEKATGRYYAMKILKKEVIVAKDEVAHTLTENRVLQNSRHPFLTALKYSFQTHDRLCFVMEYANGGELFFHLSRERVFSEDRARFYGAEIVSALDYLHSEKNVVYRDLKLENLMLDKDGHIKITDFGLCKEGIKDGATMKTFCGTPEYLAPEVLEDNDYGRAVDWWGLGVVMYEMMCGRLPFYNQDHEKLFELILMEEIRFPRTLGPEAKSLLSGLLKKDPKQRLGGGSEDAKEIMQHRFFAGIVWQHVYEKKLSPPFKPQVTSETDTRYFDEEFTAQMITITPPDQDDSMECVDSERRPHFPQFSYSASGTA
Method in brief: (§1)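 This TR-FRET readout (Eu-anti-phospho-crosstide antibody, 665/615 nm) measured PDK1-driven activation of Akt. Compound was first preincubated with each Akt isoform: Akt1 5 nM; Akt2 15 nM SignalChem or 5 nM Proteros; Akt3 3 nM SignalChem or 5 nM Proteros. Reactions then ran 30 min with 5 nM PDK1, lipid vesicles containing 0.55 µM PtdIns(3,4,5)P3, 100 µM ATP and 100 nM crosstide at pH 7.5, and IC50 came from a 4-parameter equation.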

Akt2 = molecular target: T2, Akt2 (Homo sapiens, UniProt P31751); assay: Akt activation assay (PDK1-mediated activation, LANCE Ultra crosstide TR-FRET), Akt2; format: biochemical; details: read-out: Biological Assay 1 IC50 (nM) Akt2
T2 construct: unspecified tag, removed (detagged) (cleaved yes); purchased SignalChem and Proteros (Akt2); Merck Millipore (PDK1) 14-452 (PDK1); none given for Akt2
T2 sequence (P31751 whole entry): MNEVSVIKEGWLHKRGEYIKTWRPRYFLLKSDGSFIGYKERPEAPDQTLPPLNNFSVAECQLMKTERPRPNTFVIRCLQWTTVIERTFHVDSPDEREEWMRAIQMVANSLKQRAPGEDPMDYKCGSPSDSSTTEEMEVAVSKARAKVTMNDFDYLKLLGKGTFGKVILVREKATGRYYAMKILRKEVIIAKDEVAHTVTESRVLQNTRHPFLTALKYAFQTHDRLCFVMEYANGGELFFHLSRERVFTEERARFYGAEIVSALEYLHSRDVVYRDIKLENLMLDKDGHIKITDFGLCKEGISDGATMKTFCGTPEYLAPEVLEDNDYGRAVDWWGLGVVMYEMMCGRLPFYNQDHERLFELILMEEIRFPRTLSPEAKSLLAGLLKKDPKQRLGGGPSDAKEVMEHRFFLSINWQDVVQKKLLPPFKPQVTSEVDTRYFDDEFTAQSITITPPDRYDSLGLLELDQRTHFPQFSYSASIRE
Method in brief: as §1

Akt3 = molecular target: T3, Akt3 (Homo sapiens, UniProt Q9Y243); assay: Akt activation assay (PDK1-mediated activation, LANCE Ultra crosstide TR-FRET), Akt3; format: biochemical; details: read-out: Biological Assay 1 IC50 (nM) Akt3
T3 construct: unspecified tag, removed (detagged) (cleaved yes); purchased SignalChem and Proteros (Akt3); Merck Millipore (PDK1) 14-452 (PDK1); none given for Akt3
T3 sequence (Q9Y243 whole entry): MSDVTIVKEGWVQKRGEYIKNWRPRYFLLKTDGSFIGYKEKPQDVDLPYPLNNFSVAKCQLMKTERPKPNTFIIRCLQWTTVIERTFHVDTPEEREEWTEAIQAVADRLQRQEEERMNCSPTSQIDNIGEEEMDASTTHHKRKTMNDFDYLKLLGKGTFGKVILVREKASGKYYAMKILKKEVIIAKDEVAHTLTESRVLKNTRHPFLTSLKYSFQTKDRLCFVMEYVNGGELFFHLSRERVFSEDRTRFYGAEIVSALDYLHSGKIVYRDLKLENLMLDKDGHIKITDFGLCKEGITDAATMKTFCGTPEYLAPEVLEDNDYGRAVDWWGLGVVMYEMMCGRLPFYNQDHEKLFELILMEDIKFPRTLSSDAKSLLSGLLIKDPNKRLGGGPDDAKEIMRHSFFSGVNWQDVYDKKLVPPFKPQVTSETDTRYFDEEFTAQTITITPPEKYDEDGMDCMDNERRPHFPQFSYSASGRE
Method in brief: as §1

p-Akt1 in LNCaP cells = molecular target: T4, p-Akt1 in LNCaP cells (Homo sapiens, UniProt P31749); assay: Phospho-Akt cellular SureFire assay, p-Akt1 in LNCaP cells; format: cell-based; details: read-out: Biological Assay 2 IC50 (nM) Akt1 LNCaP
T4 construct: SureFire assays to detect cellular p-Akt1, p-Akt2 and p-Akt3 levels in WM115 cells (Akt2/3) and LNCaP cells (Akt1); endogenous in cells; host or cells: LNCaP (ECACC 89110211)
T4 sequence (P31749 whole entry): as the sequence (P31749 whole entry) above
Method in brief: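 Phospho-Thr308 Akt1 detected by AlphaScreen SureFire proximity beads in LNCaP lysates after 15 min compound treatment at 37 °C in 0.1% FBS medium, unstimulated, 0.3% DMSO. Cells plated at 5×10^4/well overnight; IC50 from a 4-parameter equation.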

p-Akt2 in WM115 cells = molecular target: T5, p-Akt2 in WM115 cells (Homo sapiens, UniProt P31751); assay: Phospho-Akt cellular SureFire assay, p-Akt2 in WM115 cells; format: cell-based; details: insulin stimulated, read-out: Biological Assay 2 IC50 (nM) Akt2 WM115
T5 construct: SureFire assays to detect cellular p-Akt1, p-Akt2 and p-Akt3 levels in WM115 cells (Akt2/3) and LNCaP cells (Akt1); endogenous in cells; host or cells: WM115 (ECACC 91061232), insulin-stimulated
T5 sequence (P31751 whole entry): as the sequence (P31751 whole entry) above
Method in brief: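 Readout is a bead-proximity SureFire assay pairing a pThr308 Akt antibody with a total Akt2 antibody, lysate and beads incubated 2 h plus 2 h at room temperature in the dark. Before lysis, serum-starved WM115 cells received 100 nM insulin (10 min), then test compound (15 min, 0.3% DMSO); IC50 by 4-parameter equation.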

p-Akt3 in WM115 cells = molecular target: T6, p-Akt3 in WM115 cells (Homo sapiens, UniProt Q9Y243); assay: Phospho-Akt cellular SureFire assay, p-Akt3 in WM115 cells; format: cell-based; details: insulin stimulated, read-out: Biological Assay 2 IC50 (nM) Akt3 WM115
T6 construct: SureFire assays to detect cellular p-Akt1, p-Akt2 and p-Akt3 levels in WM115 cells (Akt2/3) and LNCaP cells (Akt1); endogenous in cells; host or cells: WM115 (ECACC 91061232), insulin-stimulated
T6 sequence (Q9Y243 whole entry): as the sequence (Q9Y243 whole entry) above
Method in brief: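 pThr308-Akt3 in lysates was quantified by bead-proximity SureFire detection, pairing a phospho-specific antibody with a total Akt3 antibody. Before lysis, WM115 cells in 0.1% FBS medium were treated for 15 min at 37 °C with compound (final DMSO 0.3%), following a 10 min stimulation with 100 nM insulin. IC50 was obtained by 4-parameter fitting.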

| Structure (SMILES) | IC50 (Akt1) [nM] | IC50 (Akt2) [nM] | IC50 (Akt3) [nM] | IC50 (p-Akt1 in LNCaP cells) [nM] | IC50 (p-Akt2 in WM115 cells) [nM] | IC50 (p-Akt3 in WM115 cells) [nM] |
| --- | --- | --- | --- | --- | --- | --- |
| CC(=O)N(C)[C@H]1CC[C@H](CC(=O)Nc2cc(-c3ccccn3)c(-c3ccc(C4(N)CCC4)cc3)cn2)CC1 [Example 76, N-(5′-(4-(1-aminocyclobutyl)phenyl)-[2,4′-bipyridin]-2′-yl)-2-(trans-4-(N-methylacetamido)cyclohexyl)acetamide] | > 30000 | > 30000 | 1000 | > 30000 | > 30000 | 140 |
| COC(=O)N(C)[C@H]1CC[C@H](CC(=O)Nc2cnc(-c3ccc([C@]4(N)C[C@H](F)C4)cc3)c(-c3ccccc3)c2)CC1 [Example 77, Methyl (trans-4-(2-((6-(4-(trans-1-amino-3-fluorocyclobutyl)phenyl)-5-phenylpyridin-3-yl)amino)-2-oxoethyl)cyclohexyl)(methyl)carbamate] | 7900 | 1100 | 62 | > 30000 | 5100 | 100 |
| N[C@]1(c2ccc(-c3ncc(NC(=O)C[C@H]4CC[C@H](N5CCOC5=O)CC4)cc3-c3ccccc3)cc2)C[C@@H](F)C1 [Example 78, N-(6-(4-(trans-1-amino-3-fluorocyclobutyl)phenyl)-5-phenylpyridin-3-yl)-2-(trans-4-(2-oxooxazolidin-3-yl)cyclohexyl)acetamide] | 5900 | 230 | 14 | 2000 | 810 | 30 |
| N[C@]1(c2ccc(-c3nnc(NC(=O)C[C@H]4CC[C@H](N5CCOC5=O)CC4)cc3-c3ccsc3)cc2)C[C@@H](F)C1 [Example 79, N-(6-(4-(trans-1-amino-3-fluorocyclobutyl)phenyl)-5-(thiophen-3-yl)pyridazin-3-yl)-2-(trans-4-(2-oxooxazolidin-3-yl)cyclohexyl)acetamide] | > 30000 | 590 | 26 | > 30000 | > 30000 | 59 |
| CC(C)(N)c1ccc(-c2nnc(NC(=O)C[C@H]3CC[C@H](N4CCOC4=O)CC3)cc2-c2ccsc2)cc1 [Example 80, N-(6-(4-(2-aminopropan-2-yl)phenyl)-5-(thiophen-3-yl)pyridazin-3-yl)-2-(trans-4-(2-oxooxazolidin-3-yl)cyclohexyl)acetamide] | > 30000 | 8900 | 130 | > 30000 | 18000 | 150 |
| CCC(=O)N(C)[C@H]1CC[C@H](CC(=O)Nc2cc(-c3ccccc3)c(-c3ccc([C@]4(N)C[C@](C)(O)C4)cc3)cn2)CC1 [Example 82, N-(trans-4-(2-((5-(4-(trans-1-amino-3-hydroxy-3-methylcyclobutyl)phenyl)-4-phenylpyridin-2-yl)amino)-2-oxoethyl)cyclohexyl)-N-methylpropionamide] | > 19000 | 130 | 6 | 2400 | 380 | 10 |
| CCC(=O)N(C)[C@H]1CC[C@H](CC(=O)Nc2cc(-c3ccccc3)c(-c3ccc([C@]4(N)C[C@](C)(O)C4)cc3)nn2)CC1 [Example 83, N-(trans-4-(2-((6-(4-(trans-1-amino-3-hydroxy-3-methylcyclobutyl)phenyl)-5-phenylpyridazin-3-yl)amino)-2-oxoethyl)cyclohexyl)-N-methylpropionamide] | 2100 | 86 | 4 | 820 | 250 | 7 |
| COC(=O)N(C)[C@H]1CC[C@H](CC(=O)Nc2cc(-c3ccsc3)c(-c3ccc([C@]4(N)C[C@](C)(O)C4)cc3)nn2)CC1 [Example 84, Methyl (trans-4-(2-((6-(4-(trans-1-amino-3-hydroxy-3-methylcyclobutyl)phenyl)-5-(thiophen-3-yl)pyridazin-3-yl)amino)-2-oxoethyl)cyclohexyl)(methyl)carbamate] | 2600 | 140 | 5 | > 19000 | 830 | 8 |
| COC(=O)N(C)[C@H]1CC[C@H](CC(=O)Nc2cc(-c3ccccn3)c(-c3ccc(C4(N)CCC4)cc3)cn2)CC1 [Example 86, Methyl (trans-4-(2-((5′-(4-(1-aminocyclobutyl)phenyl)-[2,4′-bipyridin]-2′-yl)amino)-2-oxoethyl)cyclohexyl)(methyl)carbamate] | > 30000 | 14000 | 480 | > 30000 | 12000 | 430 |
| CN(C(=O)C1CC1)[C@H]1CC[C@H](CC(=O)Nc2cc(-c3ccccc3)c(-c3ccc(C4(N)CC4)cc3)nn2)CC1 [Example 87, N-(trans-4-(2-((6-(4-(1-aminocyclopropyl)phenyl)-5-phenylpyridazin-3-yl)amino)-2-oxoethyl)cyclohexyl)-N-methylcyclopropanecarboxamide] | > 30000 | 510 | 29 | > 30000 | 3300 | 130 |
| CCC(=O)N(C)[C@H]1CC[C@H](CC(=O)Nc2cc(-c3ccsc3)c(-c3ccc(C(C)(C)N)cc3)nn2)CC1 [Example 88, N-(trans-4-(2-((6-(4-(2-aminopropan-2-yl)phenyl)-5-(thiophen-3-yl)pyridazin-3-yl)amino)-2-oxoethyl)cyclohexyl)-N-methylpropionamide] | > 30000 | 8600 | 64 | > 30000 | 16000 | 240 |
| CCC(=O)N(C)[C@H]1CC[C@H](CC(=O)Nc2cc(-c3ccsc3)c(-c3ccc([C@]4(N)C[C@](C)(O)C4)cc3)nn2)CC1 [Example 91, N-(trans-4-(2-((6-(4-(trans-1-amino-3-hydroxy-3-methylcyclobutyl)phenyl)-5-(thiophen-3-yl)pyridazin-3-yl)amino)-2-oxoethyl)cyclohexyl)-N-methylpropionamide] | 7000 | 160 | 5 | 3800 | 900 | 13 |
| CC(=O)N(C)[C@H]1CC[C@H](CC(=O)Nc2cc(-c3ccsc3)c(-c3ccc(C4(N)CC4)c(F)c3)nn2)CC1 [Example 92, N-(6-(4-(1-aminocyclopropyl)-3-fluorophenyl)-5-(thiophen-3-yl)pyridazin-3-yl)-2-(trans-4-(N-methylacetamido)cyclohexyl)acetamide] | > 30000 | 14000 | 170 | > 30000 | > 30000 | 230 |
| CC(=O)N(C)[C@H]1CC[C@H](CC(=O)Nc2cc(-c3ccsc3)c(-c3ccc([C@]4(N)C[C@](C)(O)C4)cc3)cn2)CC1 [Example 93, N-(5-(4-(trans-1-amino-3-hydroxy-3-methylcyclobutyl)phenyl)-4-(thiophen-3-yl)pyridin-2-yl)-2-(trans-4-(N-methylacetamido)cyclohexyl)acetamide] | 3900 | 320 | 10 | 2200 | 520 | 9 |
| CCOC(=O)N(C)[C@H]1CC[C@H](CC(=O)Nc2cnc(-c3ccc([C@]4(N)C[C@](C)(O)C4)cc3)c(-c3ccccc3)c2)CC1 [Example 97, Ethyl (4-(2-((6-(4-(trans-1-amino-3-hydroxy-3-methylcyclobutyl)phenyl)-5-phenylpyridin-3-yl)amino)-2-oxoethyl)cyclohexyl)(methyl)carbamate] | 2900 | 48 | 5 | 880 | 600 | 6 |
